Measurements reported in patent US10759816B2, “Heterocyclic compounds as RSV inhibitors” (Enanta Pharmaceuticals, Inc., priority 2016, dated 2020).

System: genotype A, "Long" strain RSV
Test: RSV-A in vitro cytoprotection assay in HEp-2 cells (ATPlite readout of cell viability)
Assay type: cell-based, Human respiratory syncytial virus
Conditions: human respiratory syncytial virus, HEp-2, HEp-2 cells, genotype A “Long” strain RSV, cytoprotection; read-out: Human RSV-A (“Long” strain) EC50
From the text: RSV is a single stranded negative sense RNA virus that causes respiratory tract infections which can be dangerous to infants, the elderly, and immunosuppressed individuals. Currently there is no vaccine, and therapeutic options are both costly and of limited effectiveness. These approved treatments are Ribavirin, and Palivizumab/Synagis (a monoclonal antibody). RSV has two genotypes, A and B, which differ primarily in the structure of the virus' surface “G” attachment protein. Our current primary screen focuses on RSV-A and uses an in vitro cytoprotection assay where compounds are added in 2-fold dilutions to cells which are then subjected to fully replicative viral particles. Cell viability is measured several days later along with separate measurements of compound cytotoxicity. This report focuses on the results of our most recent screening of compounds.
HEp-2 cells, (originally derived from tumors grown in irradiated-cortisonised weanling rats that had been injected with epidermoid carcinoma tissue from a person's larynx, but later found to be indistinguishable from HeLa cells by PCR DNA analysis), were used for the culturing of genotype A, “Long” strain RSV. Flasks were inoculated with RSV and viral stocks were collected once cytopathic effect (CPE) was greater than 90%. Viral stocks in 25% sucrose media were snap frozen using liquid nitrogen to increase viral stability. Viral stock titers were quantified by tissue culture infectious dose 50% (TCID50) using 8,000 cells per well and 3-fold viral dilutions across a 96-well plate, cultured for 4 days.
Following extensive parameter testing, the final assay is run as follows: HEp-2 cells are seeded into the inner 60 wells of a 96-well plate at 8,000 cells per well in a volume of 50 μL using Growth Media (DMEM without phenol red, 1% L-Glut, 1% Penn/Strep, 1% nonessential amino acids, 10% FBS). 2-Fold serial dilutions of control and test compounds are added to the wells in duplicate in a total volume of 25 μL. Viral stock is then added to the wells in a volume of 25 μL, bringing the total volume of each well to 100 μL. Each 96-well plate has a control column of 6 wells with cells and virus but no compound (negative control, max CPE), a column with cells but no compound or virus (positive control, minimum CPE), and a column with no cells or virus or compound (background plate/reagent control). The control wells with cells but no virus are given an additional 25 uL of growth media containing an equal quantity of sucrose as those wells receiving the viral stock in order to keep consistent in media and volume conditions. The outer wells of the plate are filled with 125 μL of growth media to act as a thermal and evaporative moat around the test wells. Following a 4-day incubation period, the plates are read using ATPlite (50 uL added per well), which quantifies the amount of ATP (a measure of cell health) present in each well. Assay plates are read using the Envision luminometer. In parallel, cytotoxicity is examined on an additional 96-well plate treated in an identical manner, but substituting the 25 μL of viral stock for 25 μL of growth media. […] EC50 ranges are as follows: A <0.4 μM; B 0.4-0.8 μM; C >0.8 μM.

| Structure (SMILES) | EC50 |
| --- | --- |
| Cc1cccc(F)c1NC(=O)c1cc2c(s1)-c1ccccc1N(C(=O)c1cccc(NCC(C)(C)S(C)(=O)=O)n1)CC2 [Example 465] | 400 to 800 nM |
| Cc1cccc(F)c1NC(=O)c1cc2c(s1)-c1ccccc1N(C(=O)c1cccc(N3CCS(=O)(=O)c4c(F)cccc4C3)n1)CC2 [Example 435] | < 400 nM |
| COCCCNc1cccc(C(=O)N2CCc3cc(C(=O)NC4CC4)sc3-c3ccccc32)n1 [Example 35] | 400 to 800 nM |
| O=C(NC1CC1)c1cc2c(s1)-c1ccccc1N(C(=O)c1cccc(N3CCOC[C@H]3c3ccccc3)n1)CC2 [Example 277] | > 800 nM |
| CN1CCC(NC(=O)c2cc3c(s2)-c2ccccc2N(C(=O)c2cccc(N4CCOc5ccccc5C4)n2)CC3)CC1 [Example 308] | < 400 nM |
| COC[C@H]1CCCN1c1cccc(C(=O)N2CCc3cc(C(=O)Nc4c(C)cccc4F)sc3-c3ccccc32)n1 [Example 506] | < 400 nM |
| Cc1cccc(F)c1NC(=O)c1cc2c(s1)-c1ccccc1N(C(=O)c1cccc(-n3cnc(C4CC4)c3)n1)CC2 [Example 149] | < 400 nM |
| O=C(NC1CC1)c1cc2c(s1)-c1ccccc1N(C(=O)c1cccc(-c3nncn3C3COC3)n1)CC2 [Example 128] | > 800 nM |
| O=C(NC1CC1)c1cc2c(s1)-c1ccccc1N(C(=O)c1cccc(C3CCOCC3)n1)CC2 [Example 60] | 400 to 800 nM |
| Cc1cccc(F)c1NC(=O)c1cc2c(s1)-c1ccccc1N(C(=O)c1cccc(-c3cnc(C)n3C3CC3)n1)CC2 [Example 198] | < 400 nM |
| Cc1cccc(F)c1NC(=O)c1cc2c(s1)-c1ccccc1N(C(=O)c1cccc(N3C[C@@H]4CC(F)(F)C[C@@H]4C3)n1)CC2 [Example 449] | > 800 nM |
| Cc1cccc(F)c1NC(=O)c1cc2c(s1)-c1ccccc1N(C(=O)c1cccc(-c3c[nH]c4ncccc34)n1)CC2 [Example 243] | < 400 nM |
| Cc1cccc(F)c1NC(=O)c1cc2c(s1)-c1ccccc1N(C(=O)c1cccc(NCC3(C)CCCO3)n1)CC2 (stereo not drawn) [Example 361] | > 800 nM |
| Cc1cccc(F)c1NC(=O)c1cc2c(s1)-c1ccccc1N(C(=O)c1ccc(-c3c[nH]c4ccccc34)cc1)CC2 [Example 272] | > 800 nM |
| COc1ccc2c(c1)CN(c1cccc(C(=O)N3CCc4cc(C(=O)NC5CC5)sc4-c4ccccc43)n1)CCO2 [Example 280] | < 400 nM |
| O=C(NC1CC1)c1cc2c(s1)-c1ccccc1N(C(=O)c1cccc(-c3nncn3C3CCOCC3)n1)CC2 [Example 124] | > 800 nM |
| Cc1cccc(F)c1NC(=O)c1cc2c(s1)-c1ccccc1N(C(=O)c1cccc(NCc3ccco3)n1)CC2 [Example 335] | < 400 nM |
| CCOCCNc1cccc(C(=O)N2CCc3cc(C(=O)Nc4c(C)cccc4F)sc3-c3ccccc32)n1 [Example 330] | < 400 nM |
| Cc1cccc(F)c1NC(=O)c1cc2c(s1)-c1ccccc1N(C(=O)c1cccc(N3CCCOCC3)n1)CC2 [Example 323] | < 400 nM |
| O=C(NC1CC1)c1cc2c(s1)-c1ccccc1N(C(=O)c1cccc(C3=CCN(C4COC4)CC3)n1)CC2 [Example 56] | > 800 nM |
| Cc1cccc(F)c1NC(=O)c1cc2c(s1)-c1ccccc1N(C(=O)c1cccc(-c3cn(C)c4ccccc34)n1)CC2 [Example 208] | > 800 nM |
| Cc1cccc(F)c1NC(=O)c1cc2c(s1)-c1cc(F)ccc1N(C(=O)c1cccc(N3CCOc4ccccc4C3)n1)CC2 [Example 395] | < 400 nM |
| Cc1cccc(F)c1NC(=O)c1cc2c(s1)-c1ccccc1N(C(=O)c1cccc(N(CCO)C3CC3)n1)CC2 [Example 326] | 400 to 800 nM |
| COc1ccc(C(=O)N2CCc3cc(C(=O)NC4CC4)sc3-c3ccccc32)nc1N1CCOCC1 [Example 39] | > 800 nM |

| Structure (SMILES) | EC50 |
| --- | --- |
| COC(C)(C)CNc1cccc(C(=O)N2CCc3cc(C(=O)Nc4c(C)cccc4F)sc3-c3ccccc32)n1 [Example 373] | < 400 nM |
| Cc1ccc2[nH]cc(-c3cccc(C(=O)N4CCc5cc(C(=O)Nc6c(C)cccc6F)sc5-c5ccccc54)n3)c2c1 [Example 255] | 400 to 800 nM |
| Cc1cccc(F)c1NC(=O)c1cc2c(s1)-c1ccccc1N(C(=O)c1cccc(-c3cnoc3C)n1)CC2 [Example 262] | > 800 nM |
| Cc1cccc(F)c1NC(=O)c1cc2c(s1)-c1ccccc1N(C(=O)c1cccc(-c3ccc4[nH]c(=O)ccc4c3)n1)CC2 [Example 190] | < 400 nM |
| Cc1cccc(F)c1NC(=O)c1cc2c(s1)-c1ccccc1N(C(=O)c1cccc(-c3ccc4c(c3)CNC4=O)n1)CC2 [Example 194] | 400 to 800 nM |
| O=C(NC1CC1)c1cc2c(s1)-c1ccccc1N(C(=O)c1cccc(N3CCOc4ccc(F)cc4C3)n1)CC2 [Example 278] | < 400 nM |
| O=C(NC1CC1)c1cc2c(s1)-c1ccccc1N(C(=O)c1cccc(N3CCC(c4ccccc4)CC3)n1)CC2 [Example 30] | > 800 nM |
| Cc1cccc(F)c1NC(=O)c1cc2c(s1)-c1ccccc1N(C(=O)c1cccc(-c3cncn3C3CCC3)n1)CC2 [Example 199] | < 400 nM |
| O=C(NC1CC1)c1cc2c(s1)-c1ccccc1N(C(=O)c1cccc(N3CCC4(CC3)CC4)n1)CC2 [Example 25] | 400 to 800 nM |
| Cc1cccc(F)c1NC(=O)c1cc2c(s1)-c1ccccc1N(C(=O)c1cccc(N3CCCC(C)(C)CC3)n1)CC2 [Example 375] | 400 to 800 nM |
| Cc1cccc(F)c1NC(=O)c1cc2c(s1)-c1ccccc1N(C(=O)c1cccc(NC(C)CS(C)(=O)=O)n1)CC2 (stereo not drawn) [Example 464] | > 800 nM |
| Cc1cccc(F)c1NC(=O)c1cc2c(s1)-c1ccccc1N(C(=O)c1cccc(-c3c[nH]c4c(Cl)cccc34)n1)CC2 [Example 251] | < 400 nM |
| Cc1cccc(F)c1NC(=O)c1cc2c(s1)-c1ccccc1N(C(=O)c1cccc(-c3c[nH]c4c(C)cccc34)n1)CC2 [Example 253] | < 400 nM |
| CNC(=O)c1ccc(-c2cccc(C(=O)N3CCc4cc(C(=O)NC5CC5)sc4-c4ccccc43)n2)cn1 [Example 83] | 400 to 800 nM |
| O=C(NCc1ccccn1)c1cc2c(s1)-c1ccccc1N(C(=O)c1cccc(N3CCOc4ccccc4C3)n1)CC2 [Example 306] | < 400 nM |
| O=C(Nc1cc2c(s1)-c1ccccc1N(C(=O)c1cccc(N3CCOc4ccccc4C3)n1)CC2)C1CC1 [Example 314] | > 800 nM |
| Cc1cccc(F)c1NC(=O)c1cc2c(s1)-c1ccccc1N(C(=O)c1cccc(-c3cn(CCS(C)(=O)=O)nc3C3CC3)n1)CC2 [Example 227] | > 800 nM |
| CNC(=O)n1cc(-c2cccc(C(=O)N3CCc4cc(C(=O)Nc5c(C)cccc5F)sc4-c4ccccc43)n2)c(C2CC2)n1 [Example 217] | < 400 nM |
| Cc1cccc(F)c1NC(=O)c1cc2c(s1)-c1c(F)cccc1N(C(=O)c1cccc(-c3cn[nH]c3C3CC3)n1)CC2 [Example 171] | < 400 nM |
| Cc1cccc(F)c1NC(=O)c1cc2c(s1)-c1ccccc1N(C(=O)c1cccc(N3CCS(=O)(=O)CC3)n1)CC2 [Example 418] | < 400 nM |
| Cc1cccc(F)c1NC(=O)c1cc2c(s1)-c1ccccc1N(C(=O)c1cccc(-n3ccnc3C3CC3)n1)CC2 [Example 146] | < 400 nM |
| COCCN(C)c1cccc(C(=O)N2CCc3cc(C(=O)NC4CC4)sc3-c3ccccc32)n1 [Example 34] | 400 to 800 nM |
| O=C(NC1CC1)c1cc2c(s1)-c1ccccc1N(C(=O)c1cccc(-c3nncn3CC3CCOCC3)n1)CC2 [Example 127] | > 800 nM |
| O=C(NC1CC1)c1cc2c(s1)-c1ccccc1N(C(=O)c1cccc(-c3ccc(N4CCCOCC4)nc3)n1)CC2 [Example 90] | 400 to 800 nM |
